Biological target: MoLOX (Pyricularia oryzae, UniProt G4NAP4)
Sequence (G4NAP4 17-619 limits assumed): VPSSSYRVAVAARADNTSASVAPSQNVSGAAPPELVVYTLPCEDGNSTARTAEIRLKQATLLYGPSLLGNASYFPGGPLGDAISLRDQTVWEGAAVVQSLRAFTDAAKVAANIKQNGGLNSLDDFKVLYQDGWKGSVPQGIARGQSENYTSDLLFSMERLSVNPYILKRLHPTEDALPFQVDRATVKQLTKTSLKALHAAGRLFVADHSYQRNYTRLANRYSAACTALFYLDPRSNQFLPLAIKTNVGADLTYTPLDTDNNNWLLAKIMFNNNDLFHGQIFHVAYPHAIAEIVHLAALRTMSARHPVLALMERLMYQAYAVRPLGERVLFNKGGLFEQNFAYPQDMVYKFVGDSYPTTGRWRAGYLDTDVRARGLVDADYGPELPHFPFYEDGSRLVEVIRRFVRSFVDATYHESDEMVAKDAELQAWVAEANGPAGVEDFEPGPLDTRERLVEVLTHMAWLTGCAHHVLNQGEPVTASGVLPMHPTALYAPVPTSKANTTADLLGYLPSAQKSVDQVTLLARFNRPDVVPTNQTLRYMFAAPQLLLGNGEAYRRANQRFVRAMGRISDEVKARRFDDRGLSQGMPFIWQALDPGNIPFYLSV

## CC/C=C\C/C=C\C/C=C\CCCCCCCC(=O)O [αLA, alpha linolenic]
  O2 electrode, steady-state kinetics: WT MoLOX reacts nearly twice as fast with αLA as with LA

From paper PMC11587536 (Biochemistry, 2024)
